Counter-ions that a name gives are not always drawn.
Legend:
protein kinase C (PKC) = system: T1, protein kinase C (PKC); test: Inhibition of PS/DO-mediated protein kinase C activity (32P incorporation into histone H-1); assay type: biochemical, chicken; details: activity with PKC activators and without test substance = 100%; for inhibition at 100 µM: test substance 10^-4 mol/l; for inhibition at 10 µM: test substance 10^-5 mol/l; for inhibition at 1 µM: test substance 10^-6 mol/l
T1 construct: this enzyme activity was enriched, starting from a chicken gizzard extract; from tissue; host or cells: chicken gizzard
Text: 1. Inhibition of the enzyme protein kinase C. For the elucidation of the inhibiting influence of the compounds according to the present invention of general formula (I) on the calcium- and phospholipid-dependent protein kinase (PKC), this enzyme activity was enriched, starting from a chicken gizzard extract. The two-step procedure according to purification steps described in the literature (J. Biol. Chem., 260, 15718-15722/1985) utilized the property of the enzyme of binding in the presence of calcium to cell membranes and again dissolving off by calcium chelators (EGTA). In the first purification step, there took place the binding of the PKC to membranes of the chicken gizzard extract and, in the second step, to the so-called inside out vesicles of erythrocytes. After dissolving from the erythrocyte membranes and rebuffering, the PKC preparation was present in 10 mM HEPES, 1 mM DTT and 0.1% PEG 20,000 (pH 7.5) and, under these conditions, it could be stored for several months at -70° C. without loss of activity. The activity of the enzyme was determined via the incorporation of phosphorus 32-labelled phosphate into the protein histon H-1, which is phosphorylatable by PKC. The test thereby contained the following components: 50 mM HEPES (pH 7.5), 1 mM DTT, 5 mM magnesium chloride, about 10 μM free calcium ions, 200 μg/ml histone, 5 μg/ml phosphatidylserine, 1 μg/ml 1,2-diolein, 10 μuM ATP, in each case an appropriate amount of PKC preparation and optionally a test substance. The kinase activity measured under standard conditions in the presence of PKC activators (and without test substance) was, in each case, taken as being 100% and the inhibitory action of the compounds of general formula (I) referred thereto as a percentage.

[1] = system: gel-filtered human thrombocytes; test: Inhibition of OAG-induced platelet aggregation (aggregometer); assay type: cell-based; details: 3 min preincubation, OAG 5×10^-5 M, human platelets; for inhibition at 100 µM: test substance 10^-4 mol/l; for inhibition at 10 µM: test substance 10^-5 mol/l; for inhibition at 1 µM: test substance 10^-6 mol/l
Protocol: 2. Influence of the compound of Example 1 on platelet aggregation stimulated by oleoylacetylglycerol.
For carrying out the aggregation experiments, use was made of gel-filtered human thrombocytes. These were prepared in the following way: after centrifuging human blood for 15 minutes at 60 xg, the supernatant, i.e., the platelet-rich plasma, was used for the gel filtration. By means of the gel filtration through a column packed with Sepharose CL-2B, the platelets were transferred into a calcium-free, defined buffer medium (15 mM tris, 150 mM sodium chloride, 5.5 mM glucose, 0.2% bovine serum albumin; pH 7.4). Subsequently, the platelets were recalcified to a concentration of 7×10^-4 M calcium. The platelets were then incubated at 37° C. in an aggregometer and, after initiation of the aggregation by a stimulus, the decrease of the absorption was determined as a measure of the aggregation. As aggregation-initiating stimulus, there was used 1-oleoyl-2-acetylglycerol (OAG), an activator of the enzyme protein kinase C (J. Biol. Chem., 258, 6701-6704/1983) in a concentration of 5×10^-5 M. The aggregation achieved under these conditions was taken as being 100% control. The carrying out of the experiments on the influence of the compound of Example 1 on the OAG-stimulated aggregation took place in the following way: the platelets were first incubated for 3 minutes with the compound of Example 1 at the given concentration and subsequently the aggregation was initiated with OAG. The reduced extent of the aggregation was, in each case, calculated as a percentage of the 100% control. The results obtained are set out in Table 1 as well.

SMILES | inhibition at 100 µM (protein kinase C (PKC)) [%] | inhibition at 10 µM (protein kinase C (PKC)) [%] | inhibition at 1 µM (protein kinase C (PKC)) [%] | further results
CCCCCCCCCCCCCCCCCCOCC(CN(Cc1ccccc1)Cc1ccccc1)OC(C)=O (racemic) [Example 1.b, (±)-3-dibenzylamino-1-octadecyloxy-2-propyl acetate hydrochloride] |  | 22 |  | 
CCCOCC(CN(C)C)OC(=O)CC (racemic) [Example 1.c, (±)-3-dimethylamino-1-propoxy-2-propyl propionate oxalate] | 9 |  |  | 
CCCCCCCCCCCCCCOCC(CN(C)C)OC(C)=O (racemic) [Example 1.e, (±)-3-dimethylamino-1-tetradecyloxy-2-propyl acetate hydrochloride] |  | 14 |  | 
CCCCCCCCCCCCCCC(C)OCC(CN(C)C)OC(C)=O (racemic) [Example 1.l, (±)-3-dimethylamino-1-(2-hexadecyloxy)-2-propyl acetate hydrochloride] |  | 31 |  | 
CCCCCCCC/C=C\CCCCCCCCOCC(CN(C)C)OC(C)=O (racemic) [Example 1.m, (±)-3-dimethylamino-1-(9-cis-octadecenyloxy)-2-propyl acetate hydrochloride] |  | 48 | 14 | 
CCCCCCCCCCCCCCCCCCSCC(CN(C)C)OC(C)=O (racemic) [Example 3, (±)-3-Dimethylamino-1-octadecylthio-2-propyl acetate hydrochloride] | 70 | 22 |  | 

Second part, led by results:

inhibition at 100 µM (protein kinase C (PKC)) [%] | inhibition at 10 µM (protein kinase C (PKC)) [%] | inhibition at 1 µM (protein kinase C (PKC)) [%] | SMILES | further results
86 | 61 | 24 | CCCCCCCCCCCCCCCCCCOCC(CN(C)C)OC(C)=O (racemic) [Example 1, (±)-3-Dimethylamino-1-octadecyloxy-2-propyl acetate hydrochloride] | inhibition at 100 µM [1]: 100%; inhibition at 10 µM [1]: 48%; inhibition at 1 µM [1]: 2%
25 |  |  | CCCCCCCCCCCCCCCCCCOCC(CN1CCCCC1)OC(C)=O (racemic) [Example 1.a, (±)-1-octadecyloxy-3-piperidino-2-propyl acetate hydrochloride] | inhibition at 100 µM [1]: 54%
 | 27 |  | CCCCCCCCCCCCCCCCOCC(CN(C)C)OC(C)=O (racemic) [Example 1.f, (±)-3-dimethylamino-1-hexadecyloxy-2-propyl acetate hydrochloride] | 
 | 39 |  | CCCCCCCCCCCCCCCCCCCCOCC(CN(C)C)OC(C)=O (racemic) [Example 1.g, (±)-3-dimethylamino-1-eicosanyloxy-2-propyl acetate hydrochloride] | inhibition at 10 µM [1]: 53%
44 | 18 |  | CCCCCCCCCCCCCCCCCCOCC(CN)OC(C)=O (racemic) [Example 2, (±)-3-Amino-1-octadecyloxy-2-propyl acetate hydrochloride] | 
 | 35 | 13 | CCCCCCCCCCCCCCCCCCOCC(CNC)OC(C)=O (racemic) [Example 2.a, (±)-3-methylamino-1-octadecyloxy-2-propyl acetate hydrochloride] | 
 | 61 | 18 | CCCCCCCCCCCCCCCCCCOCC(CN1CCNCC1C)OC(C)=O (stereo not shown) [Example 1.d, 1-(2-methyl)-piperazinyl-3-octadecyloxy-2-propyl acetate oxalate] | inhibition at 3 µM ([1]; test substance 3 × 10^-6 mol/l): 14%; inhibition at 10 µM [1]: 100%; inhibition at 1 µM [1]: 0%
